Entries after “also recorded” stand apart in the source; their conditions may differ. Like-named read-outs stand apart in the source and are kept apart here.
Experiments:
mice = assay: Tear secretion / tear volume in mice (phenol red thread); format: in vivo, mouse; conditions: for tear secretion / tear volume in CF mice: CF mice lacking functional CFTR; for duration of increased tear secretion / increase in tear fluid secretion / tear secretion, in words: single topical dose, wild-type mice
Description: (§1) To measure unstimulated tear production, phenol red threads (Zone-Quick, Oasis Medical, Glendora, Calif., USA) were placed for 10 s in the lateral canthi of isofluorane-anesthetized mice using jewelers' forceps. Tear volume was measured as the length of thread wetting, as visualized under a dissecting microscope. Serial measurements were used to evaluate compound pharmacodynamics after application of 2-μL drops of compound formulations (50-100 μM compound in PBS containing 0.5% polysorbate and 0.5% DMSO) comparing to vehicle.
as §1, with “Tear secretion. To” for “To”, “2-[…]L” for “2-μL”
Tear volume. Tear volume was measured using phenol red threads (Zone-Quick, Oasis Medical, Glendora, Calif.) as described. Threads were placed for 10 s in the lateral canthi of isofluorane-anesthetized mice using jewelers' forceps. Tear volume was determined from the length of thread wetting as visualized under a dissecting microscope. Serial measurements were done to evaluate compound pharmacodynamics after topical application of a single, 2.5-μL drop of ophthalmic formulation containing 0-100 μM of 1 or 12 in Ringer's solution with 0.3% carboxymethylcellulose (high viscosity, VWR, Radnor, Pa.), 0.015% benzalkonium chloride preservative, and 1% DMSO. Both eyes in each mouse received the same treatment to control for potential contralateral effects of a given treatment.

[1] = tested on: CFTR activity at the ocular surface; assay: Ocular surface potential difference (PD) in living mice; format: in vivo, mouse; conditions: wild-type mice; for change in ocular surface PD, in words: 1-10 μM
Description: (§2) Open-circuit transepithelial PD were measured continuously in anesthetized mice in response to serial perfusions of different solutions over the ocular surface, as described (21). Mice were anesthetized with Avertin (2,2,2-tribromoethanol, 125 mg/kg intraperitoneal, Sigma-Aldrich, St. Louis, Mo., USA), and core temperature was maintained at 37° C. using a heating pad. Eyes were oriented with the cornea and conjunctiva facing upward and exposed by retracting the eyelid with cross-action forceps. Solutions were isosmolar (320±10 mOsM; compositions provided in ref. 21) and contained 10μ[…] Qindomethacin to prevent CFTR activation by prostaglandins. The ocular surface was perfused at 6 mL/min through plastic tubing using a multireservoir gravity pinch-valve system (ALA Scientific, Westbury, N.Y., USA) and variable-flow peristaltic pump (medium flow model; Fisher Scientific, Fair Lawn, N.J., USA). A probe catheter was fixed 1 mm above the cornea using a micropositioner and a suction cannula was positioned 3 mm from the orbit. The measuring electrode was in contact to the perfusion catheter and connected to a high-impedance voltmeter (IsoMilivolt Meter; WPI). The reference electrode was grounded via a winged 21-gauge needle filled with isosmolar saline, and inserted subcutaneously in the abdomen. Measuring and reference electrodes consisted of Ag/AgCl with 3 M KCl agar bridges.
An open-circuit potential difference (PD) method developed in our lab was used to evaluate compound activity at the ocular surface in vivo, as depicted in FIG. 3A (21). Cl^− channel function was quantified by measuring PD during continuous perfusion of the ocular surface with a series of solutions that imposed a transepithelial Cl^− gradient and contained various channel agonists and/or inhibitors. The ocular surface was first perfused with isosmolar saline to record the baseline PD. Amiloride was then added to the perfusate, followed by exchange to a low Cl^− solution in which Cl^− with an impermeant anion, gluconate. These maneuvers allow for direct visualization of CFTR activation in response to addition of candidate CFTR activators.
as §2, with “Ocular surface potential difference measurements. Open-circuit” for “Open-circuit”, “indomethacin” for “Qindomethacin”, “Measuring and reference electrodes consisted of Ag/AgCl with 3 M KCl agar bridges.” left out

human wild-type CFTR = human wild-type CFTR (Homo sapiens, UniProt P13569); assay: Cell-based plate reader (YFP iodide influx) assay of CFTR function; set-up: expressed in transfected cells; host or cells: Fischer rat thyroid (FRT) cells stably co-expressing YFP-H148Q
human wild-type CFTR, sequence (P13569 whole entry): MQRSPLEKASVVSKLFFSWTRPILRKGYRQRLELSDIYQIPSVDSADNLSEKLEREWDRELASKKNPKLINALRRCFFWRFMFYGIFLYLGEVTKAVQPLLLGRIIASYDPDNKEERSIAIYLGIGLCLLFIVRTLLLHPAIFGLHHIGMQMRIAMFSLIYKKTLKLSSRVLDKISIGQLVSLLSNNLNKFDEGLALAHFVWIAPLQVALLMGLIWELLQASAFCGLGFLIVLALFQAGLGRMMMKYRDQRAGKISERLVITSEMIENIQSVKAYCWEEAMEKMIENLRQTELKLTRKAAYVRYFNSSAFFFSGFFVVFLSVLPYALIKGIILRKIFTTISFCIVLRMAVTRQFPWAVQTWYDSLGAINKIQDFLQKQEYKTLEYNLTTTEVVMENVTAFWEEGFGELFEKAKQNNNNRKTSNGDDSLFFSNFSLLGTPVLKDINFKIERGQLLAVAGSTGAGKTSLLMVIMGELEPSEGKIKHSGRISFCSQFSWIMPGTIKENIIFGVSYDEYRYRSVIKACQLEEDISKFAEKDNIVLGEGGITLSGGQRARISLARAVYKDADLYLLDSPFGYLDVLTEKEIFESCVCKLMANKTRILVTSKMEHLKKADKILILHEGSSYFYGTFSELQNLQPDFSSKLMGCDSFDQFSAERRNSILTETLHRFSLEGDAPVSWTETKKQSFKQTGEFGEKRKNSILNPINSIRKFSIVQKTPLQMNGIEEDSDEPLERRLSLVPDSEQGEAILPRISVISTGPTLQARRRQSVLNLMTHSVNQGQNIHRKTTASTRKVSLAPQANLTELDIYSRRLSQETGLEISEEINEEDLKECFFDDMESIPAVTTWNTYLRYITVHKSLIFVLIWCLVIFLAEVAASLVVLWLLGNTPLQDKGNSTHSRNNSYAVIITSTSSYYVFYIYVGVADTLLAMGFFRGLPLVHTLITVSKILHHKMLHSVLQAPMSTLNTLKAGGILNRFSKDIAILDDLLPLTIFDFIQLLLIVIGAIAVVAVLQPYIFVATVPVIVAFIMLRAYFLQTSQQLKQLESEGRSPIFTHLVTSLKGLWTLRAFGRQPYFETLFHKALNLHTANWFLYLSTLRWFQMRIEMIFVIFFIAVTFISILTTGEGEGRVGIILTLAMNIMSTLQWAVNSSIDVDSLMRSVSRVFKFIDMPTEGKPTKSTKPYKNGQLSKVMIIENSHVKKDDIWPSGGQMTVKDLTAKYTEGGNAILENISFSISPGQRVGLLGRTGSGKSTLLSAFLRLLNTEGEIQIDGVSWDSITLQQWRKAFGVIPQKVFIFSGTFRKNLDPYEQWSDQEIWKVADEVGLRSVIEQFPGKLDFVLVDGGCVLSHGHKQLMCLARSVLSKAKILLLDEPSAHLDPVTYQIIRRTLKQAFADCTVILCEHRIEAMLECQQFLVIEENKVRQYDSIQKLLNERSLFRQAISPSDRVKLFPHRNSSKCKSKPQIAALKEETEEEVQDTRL
How it was run: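 YFP-quenching assay: I⁻ influx is read for 2 s baseline and 12 s after rapid I⁻ addition. The initial influx rate, from exponential regression, is a linear measure of channel function. Plates carry DMSO vehicle and 20 μM forskolin controls.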

rat liver microsomes = assay: In vitro metabolic stability in rat liver microsomes; format: in vitro ADME; conditions: NADPH
Description: In vitro metabolic stability. Compounds (each 5 μM) were incubated for specified times at 37° C. with rat liver microsomes (1 mg/ml; Sigma-Aldrich) in potassium phosphate buffer containing 1 mM NADPH, as described^14.

FRT cells = assay: Cytotoxicity by Alamar Blue assay in FRT cells; format: cell-based, rat; conditions: for cytotoxicity at up to 100 μM: 1 or 24 h; for cytotoxicity of 6k / 12: 10 μM, 8 h

CCN(CC)c1nc(Nc2ccccc2)nc(OC(C(F)(F)F)C(F)(F)F)n1 [CFTRact-K089, N,N-Diethyl-6-[(1,1,1,3,3,3-hexafluoropropan-2-yl)oxy]-N′-phenyl-1,3,5-triazine-2,4-diamine]
tear secretion / tear volume in CF mice (mice): no effect | duration of increased tear secretion (mice): four and at least four | increase in tear fluid secretion (mice): approximately two-fold | tear secretion, in words (mice): doubled basal tear secretion | hyperpolarization in ocular surface potential difference [1]: ~8.5 mV | change in ocular surface PD, in words [1]: large hyperpolarizations | EC50 (human wild-type CFTR; N,N-diethyl-N′-aryl-1,3,5-triazine diamine analogs, read-out: EC50 for CFTR activation): 240 nM | % Activation (human wild-type CFTR; commercial analogs, FRT cells with YFP and wildtype CFTR, 125 nM forskolin): 111% | EC50 (human wild-type CFTR; commercial analogs, read-out: EC50 (full-dose response assay, compounds >80% activation)): 250 nM | metabolic stability in hepatic microsomes, in words (rat liver microsomes): metabolized rapidly | cytotoxicity at up to 100 μM (FRT cells): no appreciable in vitro cytotoxicity

CC(C)(C)c1cc(C(C)(C)C)c(NC(=O)c2c[nH]c3ccccc3c2=O)cc1O [VX-770, reference compound]
tear secretion, in words (mice): little tear secretion | change in ocular surface PD, in words [1]: minimal changes in ocular surface PD

CNc1nc(Nc2ccccc2)nc(OCC(F)(F)C(F)F)n1 [compound 12, N-methyl-N′-phenyl-6-(2,2,3,3-tetrafluoropropoxy)-1,3,5-triazine-2,4-diamine]
duration of sustained effect on tear volume (mice; 25 pmol, single dose): 8 h | duration of sustained increase in tear volume (mice; 100 μM (250 pmol), single dose): 8 h | time of return of tear volume to baseline (mice; 100 μM (250 pmol), single dose): 12 to 24 h | tear secretion / tear volume in CF mice (mice): without effect; also recorded: did not increase tear volume | time of maximal tear volume (mice; doses down to 25 pmol): 1 to 3 h | duration of sustained in vivo efficacy (mice; mice): at least 8 hours | lowest dose with similar activity on tear volume (mice; single-dose dose-response): 25 pmol | fold better EC50 than diethylamine analog 6a (human wild-type CFTR): ~50 fold | fold more potent than hexafluoropropanol analog 11 (human wild-type CFTR): ~3 fold | EC50 (human wild-type CFTR; N-methyl-N′-phenyl-1,3,5-triazine diamine analogs, read-out: EC50): 40 nM | metabolic stability in hepatic microsomes, in words (rat liver microsomes): rapidly metabolized by hepatic microsomes | cytotoxicity of 6k / 12 (FRT cells): non-toxic; also recorded: did not produce significant toxicity

CCN(CC)c1nc(Nc2ccc3ncsc3c2)nc(OC(C(F)(F)F)C(F)(F)F)n1 [6k, N′-(1,3-Benzothiazol-6-yl)-N,N-diethyl-6-[(1,1,1,3,3,3-hexafluoropropan-2-yl)oxy]-1,3,5-triazine-2,4-diamine]
EC50 (human wild-type CFTR): ~50 nM | fold increase in potency over benzoxazole 6j (human wild-type CFTR): ~3 fold | EC50 (human wild-type CFTR; bicyclic aniline analogs, read-out: EC50): 50 nM | original compound remaining at 60 min (rat liver microsomes; 5 μM, rat hepatic microsomes): ~60% | metabolic stability in hepatic microsomes, in words (rat liver microsomes): metabolized slowly; also recorded: substantially greater in vitro metabolic stability than 1 or 12 | cytotoxicity of 6k / 12 (FRT cells): did not produce significant toxicity

Nc1ccc([N+](=O)[O-])cc1-c1nc2ccccc2n(Cc2ccccc2)c1=O [CFTRact-J027, 3-(2-amino-5-nitrophenyl)-1-benzylquinoxalin-2(1H)-one]
duration of increased tear secretion (mice): at least four | increase in tear fluid secretion (mice): approximately two-fold | change in ocular surface PD, in words [1]: large hyperpolarizations | cytotoxicity at 20 μM (FRT cells; 20 μM): did not show cytotoxicity | cytotoxicity at 25 μM (FRT cells; 25 μM): did not show significant in vitro cytotoxicity | non-cytotoxic concentration relative to EC50 for CFTR activation (FRT cells; 25 μM): > 100 fold | cytotoxicity at up to 100 μM (FRT cells): no appreciable in vitro cytotoxicity

From patent publication US11230535B2, “CFTR regulators and methods of use thereof” (THE REGENTS OF THE UNIVERSITY OF CALIFORNIA, priority 2015, dated 2022)
